Measurements: PubChem BioAssay (NCI)
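1) Cells in 96-well plates. 2) Compound, 48 h, 5 concentrations. 3) Linear interpolation between surrounding doses. 4) Unreached endpoint = highest concentration. At the GI50, growth is halved. TGI denotes the concentration required for complete inhibition of growth.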

Columns and labels:
Assay in all cases: NCI anticancer screen, dose series, 48 h
[1] = test system: SNB-75 CNS
[2] = test system: SR leukemia
[3] = test system: HS 578T breast
[4] = test system: U251 CNS
[5] = test system: K-562 leukemia
[6] = test system: UACC-257 melanoma
[7] = test system: MALME-3M melanoma
[8] = test system: A498 renal
[9] = test system: CAKI-1 renal
[10] = test system: PC-3 prostate

| Compound | GI50 [1] [µM] | TGI [1] [µM] | GI50 [2] | TGI [2] | GI50 [3] | TGI [3] | GI50 [4] | TGI [4] | GI50 [5] | TGI [5] | GI50 [6] | TGI [6] | GI50 [7] | TGI [7] | GI50 [8] | TGI [8] | GI50 [9] | TGI [9] | GI50 [10] | TGI [10] |
| --- | --- | --- | --- | --- | --- | --- | --- | --- | --- | --- | --- | --- | --- | --- | --- | --- | --- | --- | --- | --- |
| CCCCCCCCCCN=C(c1ccc(N(C)C)cc1)c1ccc(N(C)C)cc1 | 0.4 | 6.69 | 0.211 µM | > 46.8 µM | 1.02 µM | 39.1 µM | 0.579 µM | 33.2 µM | 0.207 µM | > 100 µM | 16.5 µM | 66.2 µM | 16.6 µM | 65.8 µM | 0.457 µM | 6.33 µM | 1.43 µM | 64.3 µM | 2.71 µM | > 86 µM |
| Cc1ccc2c(c1)Sc1ccc(N=NN(C)C)cc1N2C | – | > 100 | – | > 100 µM | – | > 100 µM | – | > 100 µM | – | – | – | – | – | > 100 µM | – | > 100 µM | – | > 100 µM | – | > 100 µM |
| O=S1(=O)NCCCN1CCNc1nccc(-c2c(-c3cccc(O)c3)nc3sccn23)n1 | 7.78 | > 100 | 5.55 µM | 59.3 µM | 10.8 µM | > 81.4 µM | 21.6 µM | > 100 µM | 21.6 µM | > 100 µM | 2.99 µM | > 100 µM | 0.108 µM | 3.26 µM | 15.5 µM | 45.9 µM | 17.4 µM | > 94 µM | 45 µM | > 100 µM |
| O=S(=O)(CCOCc1ccc(-c2ccc3ncnc(Nc4ccc(OCc5cccc(F)c5)c(Cl)c4)c3c2)o1)c1ccccc1 | > 25 | > 25 | > 25 µM | > 25 µM | > 11 µM | > 25 µM | > 25 µM | > 25 µM | > 25 µM | > 25 µM | > 25 µM | > 25 µM | > 25 µM | > 25 µM | > 7 µM | > 25 µM | 0.831 µM | > 25 µM | > 25 µM | > 25 µM |
| O=C1C(Cl)=C(Nc2ccccc2)C(=O)c2ccccc21 | 1.83 | 12 | 0.992 µM | > 100 µM | 3.05 µM | 30.5 µM | 1.8 µM | 3.24 µM | 0.648 µM | > 100 µM | 1.83 µM | 3.3 µM | 1.92 µM | 3.72 µM | 8.93 µM | 35.3 µM | 1.73 µM | 3.13 µM | 3.61 µM | 22.1 µM |
| OC(CN1CC1)C(O)CN1CC1 (stereo unspecified) | – | – | > 50 mg/L | > 50 mg/L | > 50 mg/L | > 50 mg/L | > 50 mg/L | > 50 mg/L | > 50 mg/L | > 50 mg/L | > 50 mg/L | > 50 mg/L | > 50 mg/L | > 50 mg/L | > 50 mg/L | > 50 mg/L | > 50 mg/L | > 50 mg/L | > 50 mg/L | > 50 mg/L |
| Cn1c([N+](=O)[O-])cnc1/C=C1\Oc2cc(Cl)ccc2C1=O | 1.8 | 9.38 | 0.0393 µM | 0.344 µM | 1.69 µM | > 24.4 µM | 1.53 µM | 5.07 µM | 1.36 µM | 21 µM | 0.997 µM | 4.99 µM | 0.837 µM | 4.13 µM | 1.95 µM | 9.97 µM | 0.296 µM | 1.18 µM | 1.36 µM | > 24.1 µM |
